Test results: US12151028B2, “Drug delivery systems comprising solid solutions of weakly basic drugs” (Adare Pharmaceuticals, Inc., priority 2006, dated 2024)
≈ marks a conversion by molar mass, not a printed value. Counter-ions that a name gives are not always drawn. Like-named read-outs stand apart in the source and are kept apart here.

What was measured:
[1] = physchem
[2] = Turbidity measurements (transmittance of drug/polymer solutions in pH 6.0 buffer); type: physicochemical; conditions: buffer pH 6.0 containing Kollidon VA 64, Methocel E5, PEG 6000, cyclodextrin or Kollidon 14 PF; drug:polymer 1:2
Description: A concentrated solution (3 mL) of lercanidipine hydrochloride in acetone (0.5 mg/ml) was added to 200 mL of a buffer solution (pH 6.0) containing Kollidon VA 64, Methocel E5 (hypromellose), polyethylene glycol (PEG 6000), cyclodextrin or Kollidon 14 PF (polyvinyl pyrrolidone) at the ratio of 1:2 by weight with respect to the polymer.

[3] = Intrinsic dissolution rate measurements; type: physicochemical; conditions: crystalline polymorphs (Polymorph I, Polymorph II)
Description: Intrinsic dissolution rates were determined for two different polymorphs of lercanidipine hydrochloride as well as amorphous materials (e.g., amorphous drug and 1:2 solid solutions of lercanidipine hydrochloride with Methocel E5 and Kollidon VA 64).

## O=C1CN=C(c2ccccc2Cl)c2cc([N+](=O)[O-])ccc2N1 [Clonazepam, clonazepam]
[1]; pH 2.84, aqueous buffer
  solubility: 0.029 mg/mL (≈ 91.9 µM)
[1]; pH 2.92, aqueous buffer
  solubility: 0.023 mg/mL (≈ 72.9 µM)
[1]; pH 3, aqueous buffer
  solubility: 0.022 mg/mL (≈ 69.7 µM)
[1]; pH 3.32, aqueous buffer
  solubility: 0.021 mg/mL (≈ 66.5 µM)
[1]; pH 4.21, aqueous buffer
  solubility: 0.018 mg/mL (≈ 57 µM)
[1]; pH 6.39, aqueous buffer
  solubility: 0.018 mg/mL (≈ 57 µM)

## Cc1nccn1CC1CCc2c(c3ccccc3n2C)C1=O (centres unmarked) [Ondansetron Hydrochloride, ondansetron hydrochloride]
Fumaric acid 0.25 mg/mL, start pH 2.79, end pH 2.75
  Solubility of Ondansetron Hydrochloride in Fumaric Acid: 26.2 mg/mL
pH 2.13
  Solubility of Ondansetron Hydrochloride in Fumaric Acid: 26.9 mg/mL
pH 3.49
  Solubility of Ondansetron Hydrochloride in Fumaric Acid: about 26 mg/mL

## COC(=O)C1=C(C)NC(C)=C(C(=O)OC(C)(C)CN(C)CCC(c2ccccc2)c2ccccc2)C1c1cccc([N+](=O)[O-])c1 (centres unmarked) [lercanidipine hydrochloride]
[2]
  Stability of drug solution against crystallization (turbidity): improved stability
[3]
  Intrinsic dissolution rate and extent of dissolution: poor dissolution rates
